Publication PMC11883664, “Expansion of the diversity of dispersin scaffolds” (Acta Crystallographica Section D: Structural Biology, 2025)

What was measured:
DispLp = target: T1, DispLp (Lactiplantibacillus paraplantarum, UniProt A0AAD0TQY4); assay: crystal structure ([…] Å) and ITC; format: binding
T1 construct: gene LP667_05900; mature polypeptide with polyhistidine tag
T1 sequence (A0AAD0TQY4 31-361): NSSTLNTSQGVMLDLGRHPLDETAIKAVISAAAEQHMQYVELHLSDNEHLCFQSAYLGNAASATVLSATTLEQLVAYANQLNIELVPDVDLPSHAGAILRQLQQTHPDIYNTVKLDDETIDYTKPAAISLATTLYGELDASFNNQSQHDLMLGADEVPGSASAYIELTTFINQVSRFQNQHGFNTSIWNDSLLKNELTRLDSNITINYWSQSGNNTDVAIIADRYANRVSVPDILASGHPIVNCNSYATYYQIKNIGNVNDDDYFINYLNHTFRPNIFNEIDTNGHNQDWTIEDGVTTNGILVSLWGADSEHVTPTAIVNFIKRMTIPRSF

DispSf = target: T2, DispSf; assay: ITC; format: binding, Mammaliicoccus fleurettii
T2 construct: mature polypeptide with polyhistidine tag

DispTs2 [1] = target: T3, DispTs2 (Terribacillus saccharophilus, UniProt A0A075LPR4); assay: ITC and crystal structure ([…] Å); format: binding
T3 construct: gene GZ22_15930; mature polypeptide with polyhistidine tag

DispTs2 [2] = target: T3, DispTs2; assay: crystal structure by soaking ([…] Å); only the NAG-thiazoline unit (NGT) modelled; format: binding
purified protein = substrate: CC(=O)N[C@H]1[C@H](Oc2ccc3c(C)cc(=O)oc3c2)O[C@H](CO)[C@@H](O)[C@@H]1O; assay: purified protein

CC(=O)N[C@H]1CN2CC[C@H](O)[C@@H]2[C@@H](O)[C@@H]1O [6-Ac-Cas, 6-acetamido-6-deoxy-castanospermine]
Kd (DispLp): 1120 µM
Kd (DispSf): 15 µM
Kd (DispTs2 [1]): 6 µM

CC(=O)N[C@H]1[C@H](OC[C@H]2O[C@@H]3SC(C)=N[C@@H]3[C@@H](O)[C@@H]2O)O[C@H](CO)[C@@H](O)[C@@H]1O [di-NAG-thiazoline, GlcNAc-β(1,6)-GlcNAc-thiazoline]
crystal structure by soaking (2.17 Å); only the NAG-thiazoline unit (NGT) modell (DispTs2 [2]): The electron density for the first unit of di-NAG-thiazoline (corresponding to GlcNAc-thiazoline, NGT in the PDB dictionary) was well defined

B1: DispTs2 (Terribacillus saccharophilus) (protein)
chain: QDQEKGITIDISRKYYSIKTLKAIVDEISANGGDYLQLHFSDNESYAIASEFLGQNSENPNSAYLTKKELLSLIAYSNDRNIMVIPDIDLPAHSKGWLNIMKEKDSGLYTDIVTDYSEDTLDYHNNAVALYTANQLLDEVLDLFYQPKFAGKQRIVLGGDEVPGSGAHQTDFIRFMNQIAKTAKASNYEPQMWNDSITPEGIQNLDRSFSILYWKQSTLSNGAQSLDVQDFEENGLSVYNYNAYSLYFLPSTRFTQEDITEQIDYMKWAYAYNKFFYISDYYKQVDTPNVKGSSLVFWGEHANDLSQERLLKQEKPLIQNFLGL
Km (purified protein): 2500 ± 100 µM
